Measurements as given in patent US20260048036A1, “CRYSTALLINE FORMS OF A GLUCOSYLCERAMIDE SYNTHASE INHIBITOR AND USES THEREOF” (ACELINK THERAPEUTICS, INC., priority 2022, published 2026).

Columns and labels:
[1] = Hygroscopicity by DVS at 25° C.; assay type: physicochemical
[2] = Solubility at 37° C. in pH buffers and bio-relevant media
[3] = Solid state stability, 1 week (HPLC purity, color, XRPD); settings: for Bulk (XRPD) / Purity, Bulk (HPLC): Solid state, 1 week; for Purity, Bulk (HPLC): initial purity 99.8%
[4] = molecular target: T1, Glucosylceramide synthase (GCS) (Homo sapiens, UniProt Q16739); experiment: GCS cell-based assay with live K-562 cells; settings: C6-NBD-glucosylceramide by LC-MS/MS
T1 construct: The MDCK, K-562, and L6 cell lines all endogenously express GCS enzyme; host or cells: K-562 human leukemia cells, live
T1 sequence (Q16739 1-394): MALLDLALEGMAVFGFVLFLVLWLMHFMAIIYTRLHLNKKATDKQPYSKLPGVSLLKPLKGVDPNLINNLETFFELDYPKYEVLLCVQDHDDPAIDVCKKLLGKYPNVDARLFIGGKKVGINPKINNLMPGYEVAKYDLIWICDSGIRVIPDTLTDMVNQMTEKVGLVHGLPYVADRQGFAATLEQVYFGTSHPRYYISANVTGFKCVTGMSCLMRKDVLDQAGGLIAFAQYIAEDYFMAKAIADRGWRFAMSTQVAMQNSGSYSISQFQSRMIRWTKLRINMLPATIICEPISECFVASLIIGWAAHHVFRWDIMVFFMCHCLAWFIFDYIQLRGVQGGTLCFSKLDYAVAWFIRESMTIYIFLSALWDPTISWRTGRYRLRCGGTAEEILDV
Source text: The reaction product, C6-NBD-glucosylceramide, could then be detected and quantified by LC-MS/MS. The inventors used this method to test and validate the effect of various GCS inhibitors on GCS enzyme activity from different species.
The GCS enzyme activity was detected by using the fluorescent substrate, C6-NBD-ceramide, and monitoring the formation of the fluorescent reaction product, C6-NBD-glucosylceramide. First, the inventors used cell lysate derived from a canine kidney cell line (MDCK, ATCC Cat #CCL-34™) as the source of GCS and tested the inhibitory activity of several control and test compounds.
The quantitative analysis of C6-NBD-glucosylceramide was performed on a Shimadzu ultra-fast liquid chromatography coupled with API 4000 mass spectrometer. Analyst 1.5 software packages were used to control the LC-MS/MS system, as well as for data acquisition and processing.
The C6-NBD-glucosylceramide reading was normalized first by dividing the peak area of C6-NBD-glucosylceramide with the peak area of the internal standard, and then the amount was calculated according to the standard curve generated in the same assay run. For the cell based assay results, the amount of C6-NBD-glucosylceramide was also normalized by the protein concentration of the cell samples. […]

## O=C(N[C@H](CN1CCCC1)[C@H](O)c1ccc(OC2CC2)c(Cl)c1)/C(=N/O)c1ccc2cc(Cl)ccc2c1.O=C(O)C[C@H](O)C(=O)O
[1]
  XRPD after DVS test: No form change
  hygroscopicity (DVS): slightly hygroscopic
[1]; 0% RH
  Desorp. (DVS): 0.17%
  Sorp. (water uptake by DVS): 0.17%
[1]; 10% RH
  Desorp. (DVS): 0.22%
  Sorp. (water uptake by DVS): 0.22%
[1]; 20% RH
  Desorp. (DVS): 0.26%
  Sorp. (water uptake by DVS): 0.26%
[1]; 30% RH
  Desorp. (DVS): 0.30%
  Sorp. (water uptake by DVS): 0.30%
[1]; 40% RH
  Desorp. (DVS): 0.33%
  Sorp. (water uptake by DVS): 0.33%
[1]; 50% RH
  Sorp. (water uptake by DVS): 0.36%
[1]; 60% RH
  Sorp. (water uptake by DVS): 0.40%
[1]; 70% RH
  Sorp. (water uptake by DVS): 0.48%
[1]; 80% RH
  Sorp. (water uptake by DVS): 0.56%
[1]; 90% RH
  Sorp. (water uptake by DVS): 0.92%
[1]; DVS
  water uptake increased from 40% RH to 90% RH: about 0.59%
[2]; pH 4.5 buffer, 37° C.
  higher solubility than that of the free form Crystalline Form A of Compound 1: about 3 folds
[3]; 25° C./92% RH open container, 40° C./75% RH open container, 60° C. tight container, one week
  chemical and physical stability: chemically and physically stable
[3]; 25° C./92% RH, open container
  Bulk (XRPD): No form change
  Purity, Bulk (HPLC): 99.8%
[3]; 40° C./75% RH, open container
  Bulk (XRPD): No form change
  Purity, Bulk (HPLC): 99.8%
[3]; 60° C., tight container
  Bulk (XRPD): No form change
  Purity, Bulk (HPLC): 99.8%

## O=C(N[C@H](CN1CCCC1)[C@H](O)c1ccc(OC2CC2)c(Cl)c1)/C(=N\O)c1ccc2cc(Cl)ccc2c1 [Geometric isomer of Compound 1]
[4]
  IC50: 14.8 nM

## O=C(N[C@H](CN1CCCC1)[C@H](O)c1ccc(OC2CC2)c(Cl)c1)/C(=N/O)c1ccc2cc(Cl)ccc2c1 [Compound 1, (E)-N-((1R,2R)-1-(3-chloro-4-cyclopropoxyphenyl)-1-hydroxy-3-(pyrrolidin-1-yl)propan-2-yl)-2-(6-chloronaphthalen-2-yl)-2-(hydroxyimino)acetamide]
[2]; […]
  pH dependence of solubility: typical pH dependent solubility
